# Results reported in patent EP0623350A1, “Use of Bradykinin-antagonists for the manufacture of a medicament for the prophylaxis and treatment of arteriosclerosis” (HOECHST AKTIENGESELLSCHAFT, priority 1993, dated 1994).
# Columns and labels:
# Format in all cases: in vivo, weißen Kaninchen (New Zealand)
# [1] = test system: atherosklerotischen Plaques in der Aorta; assay: Atherosclerotic plaques in the aorta of cholesterol-fed rabbits (Oil Red O staining, image analysis)
# Text: (§1) Der Versuch wurde mit weißen Kaninchen (New Zealand) männlichen Geschlechts mit einem Gewicht von 3-4 Kilogramm in Anlehnung an die publizierten Methoden nach A. Kisanuki, Y. Asada, K. Hatakeyama, T. Hayashi und A. Sumiyoshi: Contributions of the Endothelium to Intimal Thickening in Normocholesterolemic and Hypercholesterolemic Rabbits, Arteriosclerosis and Thrombosis (1992), 12; 1198 - 1205 und J. Cooke, A. Singer, P. Tsao, P. Zera, R.Rowan and M. Billingham: Antiatherogenic Effects of L-Arginine in the Hypercholesterolemic Rabbit(1992), 90; 1168 - 1172 durchgeführt. Nach einer Woche unter Standard-Kaninchenfutter (Altromin 2834, Lage-Lippe, Deutschland) wurden zwei Gruppen mit je 15 Kaninchen drei Monate lang mit cholesterinreicher Diät gefüttert. Die Diät enthielt 0.25% Cholesterin und 3% Kokosnußöl. Eine der beiden Gruppen erhielt zusätzlich eine subkutane Dauerinfusion von HOE 140 über implantierte osmotische Minipumpen über den gesamten Zeitraum von drei Monaten. Die Dosis betrug 100 µg/kg/Tag.
# (§2) Eine weitere Gruppe von 15 Kaninchen, die nicht-atherogene normale Diät erhielt, diente als negative Kontrolle. Futter und Wasser wurden ad libitum gegeben. Der Nachweis, daß die gewählte Dosis HOE 140 die Wirkung endogener Kinine hemmen kann, wurde über die Hemmung der blutdrucksenkenden Wirkung von exogenem Bradykinin geführt. Am Ende des Versuches, nach dreimonatiger Behandlung, wurden die Tiere narkotisiert und der basale Blutdruck gemessen. Der basale Blutdruck lag zwischen 100 und 110 mm Hg. Nach der Messung des basalen Blutdrucks wurde Bradykinin intraarteriell als Bolus in einer Dosis von 10 ng injiziert. Bei den Tieren mit normalem Futter führte dies zu einem Blutdruckabfall von 21 mm Hg, bei den Tieren mit atherogener Diät betrug der Blutdruckabfall 24 mm Hg. Bei Kaninchen mit atherogener Diät, die mit HOE 140 behandelt wurden, fiel der Blutdruck nur noch um 3.7 mm Hg, was eine effektive Hemmung der Bradykininwirkung durch HOE 140 anzeigte.
# (§3) Danach wurden die Kaninchen mit einer hohen Dosis von Pentobarbital (40 mg/kg) getötet und eine komplette Autopsie durchgeführt. Die atherosklerotischen Plaques wurden durch Öl-Rot O ([…]) sichtbar gemacht, ihr Ausmaß mittels eines Bildanalysators quantifiziert und die prozentuale Plaquegröße in der Aorta bestimmt. Weiterhin wurden die Cholesterinfraktionen (HDL, LDL und VLDL) im Serum mit Hilfe der Ultrazentrifugation bestimmt.
# [2] = test system: Serum Lipoprotein Fraktionen; assay: Serum cholesterol/lipoprotein fractions (HDL, LDL, VLDL) by ultracentrifugation in cholesterol-fed rabbits
# Text: as §1, §3
# [3] = test system: blutdrucksenkenden Wirkung von exogenem Bradykinin; assay: Inhibition of the blood-pressure-lowering effect of exogenous bradykinin in anaesthetised rabbits; settings: Bradykinin 10 ng intra-arterial bolus; anaesthetised rabbits on atherogenic diet after 3 months HOE 140 100 µg/kg/Tag s.c.; untreated controls 21 and 24 mm Hg
# Text: as §2
# [4] = atherogenic diet 3 months plus HOE 140 100 µg/kg/Tag s.c. continuous infusion, mean ± S.E.M.
smiles,measurement,setting,value
N=C(N)NCCC[C@@H](N)C(=O)N[C@@H](CCCNC(=N)N)C(=O)N1CCC[C@H]1C(=O)N1C[C@H](O)C[C@H]1C(=O)NCC(=O)N[C@@H](Cc1cccs1)C(=O)N[C@@H](CO)C(=O)N1Cc2ccccc2C[C@@H]1C(=O)N1[C@H](C(=O)N[C@@H](CCCNC(=N)N)C(=O)O)C[C@@H]2CCCC[C@@H]21 [HOE 140],"Plaques in der Aorta: Fläche in Prozent der Intimafläche, Thorakale Aorta",[1]; [4],1.6 ± 1.1 Prozent der Intimafläche
same,"Plaques in der Aorta: Fläche in Prozent der Intimafläche, Aortenbogen","[1]; atherogenic diet (0.25% Cholesterin, 3% Kokosnußöl) 3 months plus HOE 140 100 µg/kg/Tag s.c. continuous infusion, mean ± S.E.M.",23.4 ± 5.4 Prozent der Intimafläche
same,"Plaques in der Aorta: Fläche in Prozent der Intimafläche, Abdominelle Aorta 1","[1]; first section of abdominal aorta, atherogenic diet 3 months plus HOE 140 100 µg/kg/Tag s.c. continuous infusion, mean ± S.E.M.",1.4 ± 0.6 Prozent der Intimafläche
same,Arteriosklerotische Veränderungen der Gefäßwände,"[1]; result in words, cholesterol-fed rabbits treated with HOE 140",stark reduziert
same,Atherosklerotische Veränderungen des Aortenbogens und der Aortenabschnitte in Brust und Bauch,"[1]; result in words, versus atherogenic diet alone",bei weitem geringer
same,"Plaques in der Aorta: Fläche in Prozent der Intimafläche, Abdominelle Aorta 2","[1]; second section of abdominal aorta, atherogenic diet 3 months plus HOE 140 100 µg/kg/Tag s.c. continuous infusion, mean ± S.E.M.",7.0 ± 1.5 Prozent der Intimafläche
same,"Serum Lipoprotein Fraktionen, HDL",[2]; [4],4981 ± 576 µg/mL
same,"Serum Lipoprotein Fraktionen, LDL",[2]; [4],168 ± 21 µg/mL
same,"Serum Lipoprotein Fraktionen, VLDL",[2]; [4],250 ± 12 µg/mL
same,HDL-Werte,"[2]; result in words, HDL raised by cholesterol-rich diet",keinen Einfluß
same,LDL und VLDL (Serumlipide),"[2]; result in words, versus atherogenic diet alone, hardly distinguishable from normal-diet controls",stark erniedrigt
same,Blutdruckabfall nach Bradykinin,[3],3.7 mm Hg
